According to US20250034161A1, “SPIROCYCLIC COMPOUND AS KRAS-G12C INHIBITOR” (Shanghai Euregen Biopharma Co., Ltd., priority 2020, published 2025):

How the values were obtained:
CYP 2C8 = target: T1, CYP 2C8 (Homo sapiens, UniProt P10632); test: CYP inhibition test, human liver microsomes, CYP2C8
T1 sequence (P10632 1-490): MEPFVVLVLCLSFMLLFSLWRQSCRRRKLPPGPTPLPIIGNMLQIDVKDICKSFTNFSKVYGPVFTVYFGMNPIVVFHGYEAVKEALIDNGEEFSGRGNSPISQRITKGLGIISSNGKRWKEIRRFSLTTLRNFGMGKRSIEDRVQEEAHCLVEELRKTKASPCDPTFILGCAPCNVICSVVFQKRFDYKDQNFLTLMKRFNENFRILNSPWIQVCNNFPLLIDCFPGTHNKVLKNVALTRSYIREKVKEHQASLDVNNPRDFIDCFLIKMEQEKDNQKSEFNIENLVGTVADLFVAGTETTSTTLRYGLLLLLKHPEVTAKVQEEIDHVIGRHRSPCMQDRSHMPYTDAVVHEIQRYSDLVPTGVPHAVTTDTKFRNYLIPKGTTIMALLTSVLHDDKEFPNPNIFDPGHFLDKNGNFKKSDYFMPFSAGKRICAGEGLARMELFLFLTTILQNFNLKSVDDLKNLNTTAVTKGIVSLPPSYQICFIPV
Protocol: • 1. Test purpose: to evaluate the inhibitory ability of some of the example compounds of the present invention against CYP1A2, 2B6, 2C8, 2C9, 2C19, 2D6 and 3A4 via human liver microsomes. • 2. […] Test method:
• 1. K/Mg buffer: the components were 0.1 mol/L potassium phosphate and 5 mmol/L magnesium chloride with pH 7.4±0.1, preheated. • 2. Solution of the test compound: the test compound was dissolved in dimethyl sulfoxide to prepare a stock solution of 10 mmol/L. 8 μL of 10 mmol/L stock solution was transferred to a 96-well plate containing 12 μL of acetonitrile as the highest concentration point, at 3-fold dilution, for 8 concentrations. • 3. NADPH solution: 66.7 mg of NADPH was dissolved in 10 mL of 0.1 mol/L K/Mg buffer to obtain 8 mmol/L NADPH solution with pH 7.4. • 4. Human liver microsomal stock solution: human liver microsomes were dissolved in 0.1 mol/L K/Mg buffer to obtain 20 mg/mL stock solution. • 5. Human liver microsomal working solution: 10 μL of 20 mg/mL human liver microsomal stock solution was taken and added into 990 μL of 0.1 mol/L K/Mg buffer to prepare 0.2 mg/mL human liver microsomal solution. • 6. […]

[1] = Plasma protein binding assay (equilibrium dialysis), monkey plasma; assay type: in vitro ADME; settings: pH 7.4, equilibrium dialysis 5 hours, read-out: Plasma protein binding rate (%) (converted)
Protocol: • 1. Test purpose: to evaluate the protein binding rate of the test compound in human, dog, monkey, rat and mouse plasma by equilibrium dialysis; • 2. […] Experimental methods: • 0.1 mol/L sodium phosphate and 0.15 mol/L sodium chloride buffer with pH 7.4±0.1 was preheated;
Preparation of plasma containing test substance: the test compound was dissolved in DMSO to prepare a 10 mmol/l stock solution. 5 μL of stock solution was taken and diluted with 95 μL of acetonitrile to obtain solution A (0.5 mmol/L). 8 μL of solution A was taken and diluted with 192 μL of 0.1 mol/L sodium phosphate buffer to obtain solution B (0.02 mmol/L). 570 μL of plasma was added into a 96-well plate followed by the addition of 30 μL of solution B. The final concentration was 1 μmol/L with 0.01% DMSO.
The plate was shook at 600 rpm for 10 minutes, covered and stored in a freezer (−20° C.).
T5 sample preparation (in triplicate): the dialysis device was added with 100 μL of buffer on its receiver side and 100 μL of plasma containing the test compound on its doner side. And the dialysis device was then shook at 37° C. and 120 rpm for 5 hours. At the end of culture, 25 μL of plasma containing the test substance was taken from the plasma side and then added to a 96-well plate, followed by the addition of 25 μL of buffer and 200 μL of acetonitrile solution containing internal standard. […]

C=CC(=O)N1CCN(c2nc(=O)n(-c3c(C)ccnc3C(C)C)c3nc(-c4c(O)cccc4F)c(F)cc23)[C@@H](C)C1 [AMG510]
IC50 (CYP 2C8): > 10 µM | fraction unbound at 5 h, 1 μmol/L [1]: 0.017

C=C(F)C(=O)N1CCN(c2nc(OC[C@@H]3CCCN3C)nc3c2CCN(c2cccc4cccc(Cl)c24)C3)C[C@@H]1CC#N [MRTX849]
IC50 (CYP 2C8): > 10 µM | fraction unbound at 5 h, 1 μmol/L [1]: 0.013
